Data set [1] has as its target T1, human ALK5 (ALK5 T204D kinase domain) (Homo sapiens, UniProt P36897, T204D).
T1 construct: The kinase domain of human ALK5 (amino acids 200-503); made in house; host or cells: insect cells (baculovirus)
T1 sequence (P36897 200-503 T204D): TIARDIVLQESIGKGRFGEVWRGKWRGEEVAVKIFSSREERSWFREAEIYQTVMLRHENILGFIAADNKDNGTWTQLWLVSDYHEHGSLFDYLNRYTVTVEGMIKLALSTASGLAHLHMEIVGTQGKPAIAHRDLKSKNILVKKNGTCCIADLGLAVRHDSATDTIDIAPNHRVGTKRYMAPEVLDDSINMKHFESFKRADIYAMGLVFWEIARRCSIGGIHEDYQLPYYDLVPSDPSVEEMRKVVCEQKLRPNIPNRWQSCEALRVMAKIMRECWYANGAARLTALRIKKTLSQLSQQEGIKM
Nature of the data set: ALK5 kinase assay: [33P] phosphate incorporation into casein. It is filed as biochemical. The settings on record: casein substrate, 1 μM unlabelled ATP. As to the method: The kinase activity of ALK5 is assessed by measuring radiolabelled phosphate [33P] incorporation in to the generic substrate, casein. The kinase domain of human ALK5 (amino acids 200-503) is fused to an N-terminal histidine tag. The kinase activity of ALK5 is rendered constitutive via point mutation at amino acid 204 (threonine to aspartate modification, ALK5 T204D) and the kinase construct is engineered to be expressed from a baculovirus expression construct in insect cells. The purified, recombinantly-expressed histidine-tagged ALK5 T204D protein is dissolved at 5.4 mg/ml in 50 mM Tris-HCl pH 8.0, 150 mM NaCl, 5 mM DTT. ALK5 T204D is dissolved to 2.5 μg/ml in assay buffer (Assay buffer: 20 mM Tris-HCl pH 7.4, 10 mM MgCl2, 2 mM MnCl2) on the day of use.
Test compounds and reference compounds are dissolved in assay buffer without DTT containing 5% (v/v) DMSO. Stock solutions of test and reference compounds are diluted in assay buffer with DTT (1.25 mM) containing 4.5% (v/v) DMSO. 10 μl of test or reference compound are added to the appropriate wells of 96 well U-bottomed plate. Total enzyme activity is determined by measuring ALK5 T204D activity in the absence of ALK5 kinase inhibitor reference compounds. Non-specific binding (NSB) is determined by measuring the activity of ALK5 T204D in the presence of ALK5 kinase inhibitor reference compounds. 10 μl of dephosphorylated casein stock solution (dephosphorylated casein is dissolved in ddH2O at 20 mg/ml) is added per well (200 μg/well final assay concentration). 20 μl of ALK5 T204D (2.5 μg/ml solution) is added per well (50 ng/well final assay concentration). The plates are left to incubate at room temperature for 10 minutes.
10 μl of ATP mix is added to the well to initiate the reaction (0.66 nM [^33P]ATP/1 μM unlabelled ATP/well final assay concentration). The ATP mix is prepared as follows, unlabelled ATP (3 mM) is dissolved in ddH2O and pH adjusted to 7.4. The stock concentration of [^33P]ATP is 10 μCi/μl. The appropriate volume of [^33P]ATP is added to unlabelled ATP solution such that the final assay concentration per well is 0.1 μCi. Following addition of the ATP mix, the plates are incubated at room temperature for 50 minutes. The kinase reaction is terminated by the addition of 50 μL Stop Buffer (20 mM Tris-HCl pH 7.4, 10 mM EDTA).
75 μ/well from the reaction plate is transferred to a Multiscreen-IP plate (MultiScreen-IP plates are prepared by added 50 μL of 70% (v/v) ethanol per well and incubated for 5 minutes at room temperature. The ethanol is removed by aspiration via a MultiScreen HTS Vaccum Manifold unit (Millipore, Cat no: MSVMHT500). The plates are washed twice by adding 200 μl/well ddH2O). The MultiScreen-IP plate is incubated at room temperature for 30 minutes to allowing binding of casein to the plate. The MultiScreen-IP plates are washed three times by adding 200 μl/well 100 mM phosphoric acid solution and the gasket is carefully removed from the back of the MultiScreen-IP plate and the plate dried in the oven for 30 minutes. The MultiScreen-IP plate is backsealed, 50 μL of Microscint®20 is added, then the plates are topsealed and radiolabelled casein detected and quantified on a TopCount™ plate-reader using the ^33P scintillation protocol.

Data set [2] deals with dimethylnitrosamine induced liver fibrosis. The settings on record: rat, cited from earlier work.
Data set [3] relates to bleomycin-treated rats. The settings on record: cited from earlier work.
[4] abbreviates: given therapeutically, dimethylnitrosamine induced liver fibrosis.

The values that follow come from patent publication US8367662B2, “Organic compounds” (Novartis AG, priority 2007, dated 2013).

As for `c1ccc(-c2cc(-c3cnc4cc(-c5ccc(N6CCOCC6)nc5)ccn34)ccn2)cc1` [Example 1.5, 7-(6-Morpholin-4-yl-pyridin-3-yl)-3-(2-phenyl-pyridin-4-yl)-imidazo[1,2-a]pyridine], inhibition in data set [1] was half-maximal at 8 nM (IC50).
In turn, `Fc1cccc(-c2cc(-c3cnc4cc(-c5cccnc5)ccn34)ccn2)c1` [Example 1.17, 3-[2-(3-Fluoro-phenyl)-pyridin-4-yl]-7-pyridin-3-yl-imidazo[1,2-a]pyridine] showed a half-maximal inhibitory concentration (IC50) in data set [1] of 76 nM.
For `c1ccc(-c2cc(-c3cn[nH]c3-c3ccccn3)ccn2)cc1` [GW6604], the side effects result in data set [2] (during the 3 weeks treatment) was “no obvious side effects”. In data set [2] (setting [4]), the death rate prevented is on record as 40% and the “inhibition of extracellular matrix deposition” value is listed as 60%.
`CNC(=O)c1cccc(-c2ccn3c(-c4ccnc(-n5ccc(C)n5)c4)cnc3c2)c1` [Example 1.23, N-Methyl-3-{3-[2-(3-methyl-pyrazol-1-yl)-pyridin-4-yl]-imidazo[1,2-a]pyridin-7-yl}-benzamide] yielded an IC50 in data set [1] of 77 nM. This counts as double-digit nanomolar.
Regarding `CCOc1cc(-c2cnc3ccc(N[C@H]4CC[C@H](O)CC4)cn23)ccn1` [Example 2.7], it took 281 nM to reach half-maximal inhibition in data set [1] (IC50).
Same read-out and setting: the same measure for `O=Cc1cccc(-c2ccn3c(-c4cccc(-n5cccn5)c4)cnc3c2)c1` [Example 1.9, 3-[3-(3-Pyrazol-1-yl-phenyl)-imidazo[1,2-a]pyridin-7-yl]-benzaldehyde]: 86 nM; for `c1cc(-c2cnc3ccc(-c4ccoc4)cn23)cc(-c2ccoc2)n1` [Example 2.12, 6-Furan-3-yl-3-(2-Furan-3-yl-pyridin-4-yl)-imidazo[1,2-a]pyridine]: 147 nM.
Turning to `O=Cc1cccc(-c2ccn3c(-c4ccnc(N5CCCC5)c4)cnc3c2)c1` [Example 1.46, 3-[3-(2-Pyrrolidin-1-yl-pyridin-4-yl)-imidazo[1,2-a]pyridin-7-yl]-benzaldehyde], in data set [1], half-maximal inhibition (IC50) was put at 52 nM.
Still for that read-out and setting: under `c1cncc(-c2ccn3c(-c4cccc(-n5cccn5)c4)cnc3c2)c1` [Example 1.1, 3-(3-Pyrazol-1-yl-phenyl)-7-pyridin-3-yl-imidazo[1,2-a]pyridine] stands 4 nM; under `CS(=O)(=O)Nc1cccc(-c2ccc3ncc(-c4ccnc(-c5ccoc5)c4)n3c2)c1` [Example 2.20, N-{3-[3-(2-Furan-3-yl-pyridin-4-yl)-imidazo[1,2-a]pyridin-6-yl]-phenyl}-methanesulfonamide], 97 nM; under `COc1cc(-c2cnc3ccc(N[C@H]4CC[C@H](O)CC4)cn23)ccn1` [Example 2.2], 108 nM.
In the case of `CNC(=O)c1ccc(-c2ccc3ncc(-c4ccnc(-c5ccoc5)c4)n3c2)cc1` [Example 2.18, 4-[3-(2-Furan-3-yl-pyridin-4-yl)-imidazo[1,2-a]pyridin-6-yl]-N-methyl-benzamide], half-maximal inhibition in data set [1] (IC50) was put at 57 nM. This IC50 lies about 1.9-fold lower than the previous one.
Same read-out and setting: under `CNC(=O)c1cccc(-c2ccn3c(-c4ccnc(-c5cccc(F)c5)c4)cnc3c2)c1` [Example 1.13, 3-{3-[2-(3-Fluoro-phenyl)-pyridin-4-yl]-imidazo[1,2-a]pyridin-7-yl}-N-methyl-benzamide] stands 55 nM.
In data set [1], `Fc1ccccc1-c1cc(-c2cnc3cc(-c4cccnc4)ccn23)ccn1` [Example 1.30, 3-[2-(2-Fluoro-phenyl)-pyridin-4-yl]-7-pyridin-3-yl-imidazo[1,2-a]pyridine] had an IC50 of 47 nM.

B1: follistatin: an antagonist of activin signalling (protein, UniProt P19883 30-344, looked up)
Follistatin: GNCWLRQAKNGRCQVLYKTELSKEECCSTGRLSTSWTEEDVNDNTLFKWMIFNGGAPNCIPCKETCENVDCGPGKKCRMNKKNKPRCVCAPDCSNITWKGPVCGLDGKTYRNECALLKARCKEQPELEVQYQGRCKKTCRDVFCPGSSTCVVDQTNNAYCVTCNRICPEPASSEQYLCGNDGVTYSSACHLRKATCLLGRSIGLAYEGKCIKAKSCEDIQCTGGKKCLWDFKVGRGRCSLCDELCPDSKSDEPVCASDNATYASECAMKEAACSSGVLLEVKHSGSCNSISEDTEEEEEDEDQDYSFPISSILEW
On to B1, for which, in data set [3], the lung fibrosis result is listed as “attenuated lung fibrosis”; the “number of macrophages and neutrophils in bronchoalveolar lavage” value was “significantly reduced”.

By IC50 is commonly meant the concentration at which inhibition is half-maximal.
